Source: US20230085307A1, “PYRIDAZINONE COMPOUND AND HERBICIDE” (NISSAN CHEMICAL CORPORATION, priority 2019, published 2023)

Tests used:
southern crabgrass = assay: Test Example 5: herbicidal effect by foliage application, plastic box (Table 20, symbol F); type: in vivo, southern crabgrass (Digitaria ciliaris); settings: foliage application, AAH 320 g/ha, three weeks after application
Method in brief: (§1)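 Sow seeds spot-wise in sterilized diluvial soil; cover with ~1.5 cm soil. Grow 14 days in greenhouse, 25° C. to 30° C. Spray foliage with emulsion diluted to predetermined amount. Rate effect after 3 weeks.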

persian speedwell [1] = assay: Test Example 5: herbicidal effect by foliage application, plastic box (Table 20, symbol R); type: in vivo, Persian speedwell (Veronica persica); settings: foliage application, AAH 320 g/ha, three weeks after application
Method in brief: as §1

barnyard grass [2] = assay: Test Example 4: herbicidal effect by soil treatment (Table 19, symbol H); type: in vivo, barnyard grass (Echinochloa crus-galli); settings: AAH 320 g/ha
Method in brief: (§2)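 Applied as a water-diluted emulsion, the compound was sprayed onto soil covering newly sown seeds. Evaluation came three weeks after application, in a greenhouse held at 25° C. to 30° C.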

green foxtail = assay: Test Example 4: herbicidal effect by soil treatment (Table 19, symbol G); type: in vivo, green foxtail (Setaria viridis); settings: AAH 320 g/ha
Method in brief: as §2

velvetleaf = assay: Test Example 4: herbicidal effect by soil treatment (Table 19, symbol M); type: in vivo, velvetleaf (Abutilon theophrasti); settings: AAH 320 g/ha
Method in brief: as §2

late watergrass = assay: Test Example 1: herbicidal activity, application before weed generation under submerged conditions (Table 16, symbol A); type: in vivo, late watergrass (Echinochloa oryzicola); settings: 320 g/ha applied herbicide
Method in brief: (§3)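 Emulsion formulation, water-diluted to set dose, was put onto the flooded surface (4 cm depth, alluvial soil) the same day weeds were sown and 2.5-leaf rice transplanted. After 3 weeks at 25-30 °C under glass, each species was rated 0 (≤5% kill) to 5 (≥90% kill).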

persian speedwell [3] = assay: Test Example 4: herbicidal effect by soil treatment (Table 19, symbol R); type: in vivo, Persian speedwell (Veronica persica); settings: AAH 320 g/ha
Method in brief: as §2

barnyard grass [4] = assay: Test Example 5: herbicidal effect by foliage application, plastic box (Table 20, symbol H); type: in vivo, barnyard grass (Echinochloa crus-galli); settings: foliage application, AAH 320 g/ha, three weeks after application
Method in brief: as §1

blackgrass = assay: Test Example 5: herbicidal effect by foliage application, plastic box (Table 20, symbol J); type: in vivo, blackgrass (Alopecurus myosuroides); settings: foliage application, AAH 320 g/ha, three weeks after application
Method in brief: as §1

oval-leafed pondweed = assay: Test Example 1: herbicidal activity, application before weed generation under submerged conditions (Table 16, symbol C); type: in vivo, oval-leafed pondweed (Monochoria vaginalis); settings: 320 g/ha applied herbicide
Method in brief: as §3

wild oat = assay: Test Example 5: herbicidal effect by foliage application, plastic box (Table 20, symbol I); type: in vivo, wild oat (Avena fatua); settings: foliage application, AAH 320 g/ha, three weeks after application
Method in brief: as §1

chickweed = assay: Test Example 4: herbicidal effect by soil treatment (Table 19, symbol P); type: in vivo, common chickweed (Stellaria media); settings: AAH 320 g/ha
Method in brief: as §2

rice flat sedge = assay: Test Example 3: herbicidal effect by foliage application, Wagner pot (Table 18, symbol E); type: in vivo, rice flat sedge (Cyperus iria); settings: 320 g/ha
Method in brief: (§4)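 Plants were sown in alluvial soil held under 0.1–0.5 cm standing water and grown 14 days in a greenhouse at 25–30 °C. An emulsifiable formulation, water-diluted to the set dose, was then sprayed onto the foliage, and effects were scored three weeks later using previously defined criteria.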

redroot pigweed = assay: Test Example 4: herbicidal effect by soil treatment (Table 19, symbol N); type: in vivo, redroot pigweed (Amaranthus retroflexus); settings: AAH 320 g/ha
Method in brief: as §2

barnyard grass [5] = assay: Test Example 3: herbicidal effect by foliage application, Wagner pot (Table 18, symbol H); type: in vivo, barnyard grass (Echinochloa crus-galli); settings: 320 g/ha
Method in brief: as §4

Japanese bulrush = assay: Test Example 2: herbicidal activity, application during weed generation under submerged conditions (Table 17, symbol B); type: in vivo, Japanese bulrush (Schoenoplectus juncoides); settings: AAH 320 g/ha; application during weed generation, submerged conditions
Method in brief: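 Herbicide emulsion, diluted with water to the chosen amount, is applied onto 4 cm floodwater over alluvial soil where the weeds were co-sown and raised at 25–30° C. Application timing: 1–2 leaves. Assessment: three weeks afterwards.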

Row | SMILES | F: southern crabgrass, herbicidal effect (southern crabgrass) | R: persian speedwell, herbicidal effect (persian speedwell [1]) | H: barnyard grass, herbicidal effect rating (barnyard grass [2]) | G: green foxtail, herbicidal effect rating (green foxtail) | M: velvetleaf, herbicidal effect rating (velvetleaf) | Herbicidal effect on A: late watergrass (grade 0-5) (late watergrass) | R: persian speedwell, herbicidal effect rating (persian speedwell [3]) | H: barnyard grass, herbicidal effect (barnyard grass [4]) | J: blackgrass, herbicidal effect (blackgrass) | Herbicidal effect on C: oval-leafed pondweed (grade 0-5) (oval-leafed pondweed) | I: wild oat, herbicidal effect (wild oat) | P: chickweed, herbicidal effect rating (chickweed) | herbicidal effect on E (rice flat sedge), rating 0-5 (rice flat sedge) | N: redroot pigweed, herbicidal effect rating (redroot pigweed) | herbicidal effect on H (barnyard grass), rating 0-5 (barnyard grass [5]) | herbicidal effect rating, B: Japanese bulrush (Japanese bulrush)
1 | Cc1nn(C)c(=O)c(-c2c(-c3ccc(OCC4CC4(F)F)cc3)sc3ccccc23)c1O (centres unmarked) [1-138] | 0 (Herbicidal rate of 5% or less (almost no effect)) | 5 (Herbicidal rate of 90% or more (almost completely withered)) | 5 (Herbicidal rate of 90% or more (almost completely withered)) | 4 (Herbicidal rate of 70% or more and less than 90%) | 3 (Herbicidal rate of 40% or more and less than 70%) | 3 (Herbicidal rate of 40% or more and less than 70%) | 5 (Herbicidal rate of 90% or more (almost completely withered)) | 5 (Herbicidal rate of 90% or more (almost completely withered)) | 5 (Herbicidal rate of 90% or more (almost completely withered)) | 3 (Herbicidal rate of 40% or more and less than 70%) | 0 (Herbicidal rate of 5% or less (almost no effect)) | 4 (Herbicidal rate of 70% or more and less than 90%) | 5 (Herbicidal rate of 90% or more (almost completely withered)) | 5 (Herbicidal rate of 90% or more (almost completely withered)) | 5 (Herbicidal rate of 90% or more (almost completely withered)) | 3 (Herbicidal rate of 40% or more and less than 70%)
2 | CSCCOc1ccc(-c2sc3ccccc3c2-c2c(O)c(C)nn(C)c2=O)cc1 [1-141] | 5 (Herbicidal rate of 90% or more (almost completely withered)) | 5 (Herbicidal rate of 90% or more (almost completely withered)) | 4 (Herbicidal rate of 70% or more and less than 90%) | 5 (Herbicidal rate of 90% or more (almost completely withered)) | 4 (Herbicidal rate of 70% or more and less than 90%) | 3 (Herbicidal rate of 40% or more and less than 70%) | 5 (Herbicidal rate of 90% or more (almost completely withered)) | 5 (Herbicidal rate of 90% or more (almost completely withered)) | 5 (Herbicidal rate of 90% or more (almost completely withered)) | 0 (Herbicidal rate of 5% or less (almost no effect)) | 5 (Herbicidal rate of 90% or more (almost completely withered)) | 4 (Herbicidal rate of 70% or more and less than 90%) | 5 (Herbicidal rate of 90% or more (almost completely withered)) | 5 (Herbicidal rate of 90% or more (almost completely withered)) | 5 (Herbicidal rate of 90% or more (almost completely withered)) | 3 (Herbicidal rate of 40% or more and less than 70%)
